Reference: article PMC8508710, “Biochemical Characterization of 13-Lipoxygenases of Arabidopsis thaliana” (International Journal of Molecular Sciences, 2021)

System: pea root LOX
Assay: Ex vivo pea root extract LOX activity, oxygen electrode
Format: biochemical, Pisum sativum
Conditions: 36 µg pea root extract pretreated with 1 mM 12-OPDA
Description: To evaluate 12-OPDA as a LOX inhibitor under native conditions, we employed pea roots as a plant LOX source. The reliability was assessed with the criterion that an increase in A234nm and, ideally, oxygen consumption occurred via the injection of plant tissue extract (0.5–2 µg/µL protein in 50 mM Tris-HCl or K-Pi, pH 6.6–8.0) in LeA (tested at 4–100 µM). […] Pea seeds (Pisum sativum “Kleine Rheinländerin”) were placed in darkness for 4 days on moist paper. The emerged roots were cut, frozen in liquid N2, and stored at −80 °C. Frozen tissue (~50 mg/mL) was pulverized in a pre-chilled mortar and immediately ground with 50 mM Tris-HCl, pH 7.2. […]
The immunological detection of 13-LOX was performed, based on. […] After 1 h blocking with blocking solution (1% (w/v) non-fat dry milk in TBST (150 mM NaCl, 50 mM Tris-HCl, pH 7.5, 0.05% tween 20)) and overnight incubation (4 °C) with LOX2 (At3g45140) serum (Agrisera, AS07 258, 1:25,000 in blocking solution), the blot was washed with TBST and incubated (2 h, 25 °C) with horseradish peroxidase-coupled anti-rabbit IgG as second antibody (1:20,000 in blocking solution) for the subsequent luminescence detection of immunodecorated LOX on X-ray films (30 s incubation). […] The mixture was injected in 1.8 mL of 20 µM LeA (in 50 mM Tris-HCl, pH 7.2) and recorded for oxygen consumption.

CCC=CCC1C(=O)C=CC1CCCCCCCC(=O)O (stereo not drawn) [12-OPDA, cis-(+)-12-oxophytodienoic acid]
Inhibition of activity (20 µM LeA): about 43% | Oxygen consumption (control 4.6 ± 0.5): 2.0 ± 0.5 nmol/mL/min
